The source of these data is patent publication US11135229B2, “Cat and dog sterilization by estrogenic compounds” (Insigna Inc., priority 2018, dated 2021).

Data set [1] has as its system premature male and female rats. In kind it is in vivo.
For data set [2] the following is noted: rat, in vivo, sc.
Method: Hormonal measurement. Blood was collected from the tail vein or by cardiac puncture. The blood was centrifuged at 2000×g for 10 minutes; then serum was collected and preserved at −20° C. until further analyses. Serum estradiol concentrations were measured by using ELISA kits (DRG EIA4399) with a reportable range of 1.4-200 μg/ml.
A silicone capsule containing 17β-estradiol 3-benzoate (EB, Sigma E8515) was used as a device to elevate blood 17β-estradiol (E2) concentration to a supra-physiological level. Once implanted subcutaneously, the silicone capsule with EB (called eSpay) releases EB for an extended period of time. […] Therefore, EB that contained 300 μg of EB (herein EB300) was made by dissolving 300 μg of EB in 5 μl of sesame oil (Sigma S3547), and it was inserted into a silicone tube (Dow Corning 508-005) that was later closed with silicone sealant (Factor II, Inc. Medical Adhesive A-100). The capsule was kept at room temperature until use. The EB300 capsule was approximately 8 mm long and 2.16 mm in diameter. […]
The efficacy of the EB300 capsule as a device to elevate E2 levels in its recipient was tested after implanting it on the day of birth (post-natal day 0, PND 0). Serum and hypothalami were collected at PND 1, 2, 3, 4, 7, 10, 21, and 30, and E2 concentrations were measured.
Where [3] appears, read: premature male rats, capsule injected subcutaneously.

SMILES strings stand for the structures.

With `C[C@]12CC[C@@H]3c4ccc(OC(=O)c5ccccc5)cc4CC[C@H]3[C@@H]1CC[C@@H]2O` [EB, 17β-Estradiol 3-benzoate], in data set [1] (premature female rats, capsule injected), the Female reproductive system entry was “preventing the females from undergoing menstrual cycling and from producing ova”. Also, in data set [1] (setting [3]), the “Sterility of male rats” value is “permanently sterile”; the “Testicular testosterone and sperm production” value was “did not produce testosterone or sperm”. Also, in data set [1] (rat, in vivo), the Death or sickness entry is listed as “no subject animal died or exhibited sickness”; the “Immune system, liver and kidney function examination” value is “no clinical pathology”. Moreover, the “Period of sustained, high blood E2 level” value in data set [2] is “about three weeks”.
